*1 amine or outer side, *2 acyl side, *3 side chain or, on linkers, in order; H or OH if unused. Where a SMILES comes first, the peptide text is derived from it. Bridges are numbered along the chain shown (N, C = ends). [ ]: non-standard residue; d: D form. X3 = Cc1cccc(-c2cccc3c(C[C@H](N[*:1])C(=O)[*:2])c[nH]c23)c1; X7 = O=C([C@H](Cc1c[nH]c2cc(-c3ccccc3)ccc12)N[*:1])[*:2]; Trp(7-Ph) = N[C@@H](Cc1c[nH]c2c(-c3ccccc3)cccc12)C(=O)O; X4 = O=C([C@H](Cc1c[nH]c2c(-c3ccsc3)cccc12)N[*:1])[*:2]; Ala(quinolin-3-yl) = N[C@@H](Cc1cnc2ccccc2c1)C(=O)O; 2Nal = N[C@@H](Cc1ccc2ccccc2c1)C(=O)O; Trp(7-thienyl) = 7-thienyl-tryptophan; AEF = NCCOc1ccc(C[C@H](N)C(=O)O)cc1; Pen = CC(C)(S)[C@H](N)C(=O)O; αMeK = C[C@](N)(CCCCN)C(=O)O; Thp = NC1(C(=O)O)CCOCC1; Abu = CC[C@H](N)C(=O)O
T1: interleukin-23 receptor (IL-23R), human (human, UniProt Q5VWK5 24-629)
T1 sequence (looked up): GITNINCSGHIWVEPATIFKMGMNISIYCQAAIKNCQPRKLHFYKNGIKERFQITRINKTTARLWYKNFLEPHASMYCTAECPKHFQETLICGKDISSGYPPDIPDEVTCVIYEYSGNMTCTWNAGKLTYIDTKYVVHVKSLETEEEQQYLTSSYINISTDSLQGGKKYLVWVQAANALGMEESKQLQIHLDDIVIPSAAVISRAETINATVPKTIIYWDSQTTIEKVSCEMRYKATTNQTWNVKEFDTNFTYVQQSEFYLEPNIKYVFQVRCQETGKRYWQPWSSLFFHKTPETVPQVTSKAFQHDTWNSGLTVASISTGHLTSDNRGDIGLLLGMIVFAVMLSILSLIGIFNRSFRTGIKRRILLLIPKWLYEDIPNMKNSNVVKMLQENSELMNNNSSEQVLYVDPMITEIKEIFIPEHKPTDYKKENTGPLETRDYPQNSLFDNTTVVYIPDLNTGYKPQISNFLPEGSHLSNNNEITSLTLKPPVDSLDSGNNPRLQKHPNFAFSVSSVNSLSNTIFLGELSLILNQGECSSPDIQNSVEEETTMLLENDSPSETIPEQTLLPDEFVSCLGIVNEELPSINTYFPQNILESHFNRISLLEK


Assays:
[1] = tested on: Natural killer (NK) cells; assay type: cell-based, human
Source text: Where not shown, data was not yet determined.

[2] = Stability in simulated intestinal fluid (SIF); assay type: in vitro ADME; conditions: 100 fold dilution of standard SIF concentration, 37° C., 20 μM
Protocol: Studies were carried out in simulated intestinal fluid (SIF) and simulated gastric fluid (SGF) to evaluate gastric stability of the peptide inhibitors of the present invention. In addition, studies were carried out to assess redox stability of the peptide inhibitors of the present invention.
SIF was prepared by adding 6.8 g of monobasic potassium phosphate and 10.0 g of pancreatin to 1.0 L of water. After dissolution, the pH was adjusted to 6.8 using NaOH. DMSO stocks (2 mM) were first prepared for the test compounds. Aliquots of the DMSO solutions were dosed into 6 individual tubes, each containing 0.5 mL of SIF, which is pre-warmed to 37° C. The final test compound concentration was 20 μM. The vials were kept in a benchtop Thermomixer® for the duration of the experiment. At each timepoint (0, 5, 10, 20, 40, 60, or 360 minutes or 24 hours), 1.0 mL of acetonitrile containing 1% formic acid was added to one vial to terminate the reaction. Samples were stored at 4° C. until the end of the experiment. After the final timepoint is sampled, the tubes were mixed and then centrifuged at 3,000 rpm for 10 minutes. Aliquots of the supernatant were removed, diluted 1:1 into distilled water containing internal standard, and analyzed by LCMS/MS. Percent remaining at each timepoint was calculated based on the peak area response ratio of test to compound to internal standard. Time 0 was set to 100%, and all later timepoints were calculated relative to time 0. Half-lives were calculated by fitting to a first-order exponential decay equation using Graphpad.

[3] = Stability in human fecal homogenate (anaerobic); assay type: in vitro ADME; conditions: pH 6.8, 20% human fecal homogenate, 37° C., up to 24 hours, read-out: t1/2: Human Feces anaerobic
Protocol: (§1) Studies were carried out in human or cynomolgus monkey fecal homogenate to evaluate gastrointestinal stability of the peptide inhibitors of the present invention.
(§2) Fecal homogenate ([…]) was prepared by adding 4 mL of growth medium (1 liter contains 2 g peptone water powder, 2 g yeast extract, 0.1 g NaCl, 0.04 g KH2PO4, 0.01 g CaCl2.6H2O, 0.01 g MgSO4.7H2O, 2 mL Tween 80, 0.5 g bile salts, 0.5 g L-cysteine HCl, 2 g NaHCO3, and 10 μL Vitamin K, pH adjusted to 6.8, and sterilized by filtration through a 0.22 μm filter) to every gram of feces (pooled freshly collected human or cynomolgus monkey feces). The suspension was vortexed to break up large clumps, and homogenized using a bead mill homogenizer. Centrifuged the homogenate at 2800×g for 15 min. The supernatant is taken out and used for incubations. DMSO stocks (10 mM) were first prepared for the test compounds. Incubations were performed in an anaerobic chamber conditioned at 37° C. Aliquots of the DMSO solutions were dosed into 1.0 mL aliquots of 20% fecal homogenate, which are pre-warmed to 37° C. The final test compound concentration was 20 μM. At each timepoint (0, 20 min, 1, 3, 6, or 24 hours), 100 μL aliquot of each incubation mixture is taken out and added to separate tubes containing 300 μL of 50% acetonitrile/50% methanol and an internal standard to terminate the reaction. Samples were taken out of the anaerobic chamber and stored at 4° C. until the end of the experiment. After the final timepoint is sampled, the tubes were mixed and then centrifuged at 3,000 rpm for 10 minutes. Aliquots of the supernatant were removed, diluted 1:1 into distilled water containing 0.1% formic acid, and analyzed by LC/MS/MS. Percent remaining at each timepoint was calculated based on the peak area response ratio of test to compound to internal standard. Time 0 was set to 100%, and all later timepoints were calculated relative to time 0. Half-lives were calculated by fitting to a first-order exponential decay equation using Graphpad or Excel.

[4] = Stability in cynomolgus monkey fecal homogenate (anaerobic); assay type: in vitro ADME; conditions: pH 6.8, 20% cynomolgus monkey fecal homogenate, 37° C., up to 24 hours, read-out: t1/2: Monkey Feces anaerobic (converted)
Protocol: as §1, §2

Stability in rat plasma = assay type: in vitro ADME; conditions: both sexes, SD rat plasma, EDTA, 37° C., up to 24 hours, read-out: t1/2: Rat Plasma EDTA
Protocol: Peptides of interest (20 μM) were incubated with pre-warmed rat plasma (SD rat, mixed gender pooled, EDTA, filtered through 0.22 μm, BioreclamationIVT) at 37° C. Aliquots were taken at various time points up to 24 hours (e.g. 0, 0.25, 1, 3, 6 and 24 hr), and immediately quenched with 4 volumes of organic solvent (acetonitrile/methanol (1:1) and 0.1% formic acid, containing 1 μM internal standard). Quenched samples were stored at 4° C. until the end of the experiment and centrifuged at 4,000 rpm for 10 minutes. The supernatant were diluted 1:1 with deionized water and analyzed using LC-MS. Percentage remaining at each time point was calculated based on the peak area ratio (analyte over internal standard) relative to the initial level at time zero. Half-lives were calculated by fitting to a first-order exponential decay equation using GraphPad.

[5] = target: T1, interleukin-23 receptor (IL-23R), human; assay: cell-based or functional assay
[6] = 20% fecal homogenate (supernatant)

| Molecule | IC50 [1] | SIF t1/2 [2] | half-life at 20 μM [3, 6] | half-life at 20 μM [4, 6] | half-life at 20 μM (Stability in rat plasma) | pStat3 HTRF IC50 (DB cells IL23R pSTAT3 cell assay, 0.5 nM IL-23) [5] | also measured |
| --- | --- | --- | --- | --- | --- | --- | --- |
| CC(=O)NCCCC[C@@H]1NC(=O)[C@H](Cc2c[nH]c3c(-c4ccccc4)cccc23)NC(=O)[C@H]([C@@H](C)O)NC(=O)[C@H](CC(N)=O)NC(=O)[C@@H](NC(C)=O)C(C)(C)SSC(C)(C)[C@@H](C(=O)N[C@@H](Cc2ccc(OCCN)cc2)C(=O)N[C@@H](Cc2cnc3ccccc3c2)C(=O)NC2(C(=O)N[C@@H](CCC(=O)O)C(=O)N[C@@H](CC(N)=O)C(=O)N[C@H](CCCCN)C(N)=O)CCOCC2)NC1=O [Peptide 13, Ac-[Pen]-N-T-[W(7-Ph)]-[Lys(Ac)]-[Pen]-Phe[4-(2-aminoethoxy)]-[3Quin]-[THP]-E-N-[(D)Lys]-NH2] (Ac-[Pen]NT[Trp(7-Ph)]K(Ac)[Pen][AEF][Ala(quinolin-3-yl)][Thp]EN[dK]-NH2; disulfide 1-6) | 1.55 nM | 24 h | > 24 h | > 24 h | > 24 h |  |  |
| CC(=O)NCCCC[C@@H]1NC(=O)[C@H](Cc2c[nH]c3c(-c4cccc(C)c4)cccc23)NC(=O)[C@H]([C@@H](C)O)NC(=O)[C@H](CC(N)=O)NC(=O)[C@@H](NC(C)=O)C(C)(C)SSC(C)(C)[C@@H](C(=O)N[C@@H](Cc2ccc(OCCN)cc2)C(=O)N[C@@H](Cc2ccc3ccccc3c2)C(=O)N[C@@](C)(CCCCN)C(=O)N[C@@H](CCCCNC(C)=O)C(=O)N[C@@H](CC(N)=O)C(=O)N[C@H](CCCCN)C(N)=O)NC1=O [Peptide 7, Ac-[Pen]-N-T-[W(7-(3-MePh))]-[Lys(Ac)]-[Pen]-Phe[4-(2-aminoethoxy)]-[2-Nal]-[a-MeLys]-[Lys(Ac)]-N-[(D)Lys)]-NH2] (Ac-[Pen]NT[X3]K(Ac)[Pen][AEF][2Nal][αMeK]K(Ac)N[dK]-NH2; disulfide 1-6) | 5.87 nM | 24 h |  |  |  |  | half-life at 20 μM [3]: > 24 h; half-life at 20 μM [4]: > 24 h; half-life at 20 μM (Stability in rat plasma; pooled): > 24 h |
| CC(=O)NCCCC[C@@H]1NC(=O)[C@H](Cc2c[nH]c3c(-c4ccccc4)cccc23)NC(=O)[C@H]([C@@H](C)O)NC(=O)[C@H](CC(N)=O)NC(=O)[C@@H](NC(C)=O)C(C)(C)SSC(C)(C)[C@@H](C(=O)N[C@@H](Cc2ccc(OCCN)cc2)C(=O)N[C@@H](Cc2cnc3ccccc3c2)C(=O)NC2(C(=O)N[C@@H](CCC(=O)O)C(=O)N[C@@H](CC(N)=O)C(=O)N[C@H](CC(C)C)C(N)=O)CCOCC2)NC1=O [Peptide 15, Ac-[Pen]-N-T-[W(7-Ph)]-[Lys(Ac)]-[Pen]-Phe[4-(2-aminoethoxy)]-[3Quin]-[THP]-E-N-[(D)Leu]-NH2] (Ac-[Pen]NT[Trp(7-Ph)]K(Ac)[Pen][AEF][Ala(quinolin-3-yl)][Thp]EN[dL]-NH2; disulfide 1-6) | 2.44 nM | 24 h | > 24 h | > 24 h | > 24 h |  |  |
| CC(=O)NCCCC[C@@H]1NC(=O)[C@H](Cc2c[nH]c3cc(-c4ccccc4)ccc23)NC(=O)[C@H]([C@@H](C)O)NC(=O)[C@H](CC(N)=O)NC(=O)[C@@H](NC(C)=O)C(C)(C)SSC(C)(C)[C@@H](C(=O)N[C@@H](Cc2ccc(OCCN)cc2)C(=O)N[C@@H](Cc2ccc3ccccc3c2)C(=O)N[C@@](C)(CCCCN)C(=O)N[C@@H](CCCCNC(C)=O)C(=O)N[C@@H](CC(N)=O)C(=O)N[C@H](CCCCN)C(N)=O)NC1=O [Peptide 6, Ac-[Pen]-N-T-[W(6-Ph)]-[Lys(Ac)]-[Pen]-Phe[4-(2-aminoethoxy)]-[2-Nal]-[a-MeLys]-[Lys(Ac)]-N-[(D)Lys)]-NH2] (Ac-[Pen]NT[X7]K(Ac)[Pen][AEF][2Nal][αMeK]K(Ac)N[dK]-NH2; disulfide 1-6) |  | 24 h |  |  |  |  | half-life at 20 μM [3]: > 24 h; half-life at 20 μM [4]: > 24 h; half-life at 20 μM (Stability in rat plasma; pooled): > 24 h |
| CC(=O)NCCCC[C@H](NC(=O)[C@](C)(CCCCN)NC(=O)[C@H](Cc1ccc2ccccc2c1)NC(=O)[C@H](Cc1ccc(OCCN)cc1)NC(=O)[C@H]1NC(=O)[C@H](CCC(N)=O)NC(=O)[C@H](Cc2c[nH]c3c(-c4ccsc4)cccc23)NC(=O)[C@H]([C@@H](C)O)NC(=O)[C@H](CC(N)=O)NC(=O)[C@@H](NC(C)=O)C(C)(C)SSC1(C)C)C(=O)N[C@@H](CC(N)=O)C(=O)N[C@H](CCCCN)C(N)=O [Peptide 2] (Ac-[Pen]NT[X4]Q[Pen][AEF][2Nal][αMeK]K(Ac)N[dK]-NH2; disulfide 1-6) |  | 24 h | > 24 h | > 24 h | > 24 h |  |  |
| Ac-[Abu]QT[Trp(7-Ph)]K(Ac)C[AEF][2Nal][αMeK]K(Ac)N[dK]-NH2 (thioether 1-6) [Peptide No. 19 (SEQ ID No. 19)] |  |  |  |  |  | 2.57 nM |  |
| Ac-[dR][Abu]QT[Trp(7-Ph)]K(Ac)C[AEF][2Nal][αMeK]K(Ac)N[dL]-NH2 (thioether 2-7) [Peptide No. 3 (SEQ ID No. 3)] |  |  |  |  |  | 9.42 nM |  |
| Ac-[Pen]NT[Trp(7-thienyl)]Q[Pen][AEF][2Nal][αMeK]K(Ac)N[dK]-NH2 (disulfide 1-6) [Peptide No. 2 (SEQ ID No. 2)] |  |  |  |  |  | 1.21 nM |  |
| Ac-[dR][Abu]QT[Trp(7-Ph)]K(Ac)C[AEF][2Nal][αMeK]K(Ac)N[dK]-NH2 (thioether 2-7) [Peptide No. 5 (SEQ ID No. 5)] |  |  |  |  |  | 8.53 nM |  |
| Ac-[dR][Abu]QT[Trp(7-Ph)]K(Ac)C[AEF][2Nal][αMeK]K(Ac)N-NH2 (thioether 2-7) [Peptide No. 4 (SEQ ID No. 4)] |  |  |  |  |  | 49.4 nM |  |

— US20230129095A1, “PEPTIDE INHIBITORS OF INTERLEUKIN-23 RECEPTOR AND THEIR USE TO TREAT INFLAMMATORY DISEASES” (Protagonist Therapeutics, Inc., priority 2020, published 2023)
